Laboratory results from patent US12486259B2, “FXR agonist having pyrazine structure, and preparation method and use” (JIANGSU TASLY DIYI PHARMACEUTICAL CO., LTD., priority 2020, dated 2025).

What follows are compounds tested against T1, FXR (Homo sapiens, UniProt Q96RI1) (assay: Intracellular FXR-TR-FRET experiment (pBIND-FXR / pG5Luc dual luciferase)). Settings: cellular level, 18 hours with compound.
T1 construct: expressed in transfected cells
T1 sequence (Q96RI1 1-486): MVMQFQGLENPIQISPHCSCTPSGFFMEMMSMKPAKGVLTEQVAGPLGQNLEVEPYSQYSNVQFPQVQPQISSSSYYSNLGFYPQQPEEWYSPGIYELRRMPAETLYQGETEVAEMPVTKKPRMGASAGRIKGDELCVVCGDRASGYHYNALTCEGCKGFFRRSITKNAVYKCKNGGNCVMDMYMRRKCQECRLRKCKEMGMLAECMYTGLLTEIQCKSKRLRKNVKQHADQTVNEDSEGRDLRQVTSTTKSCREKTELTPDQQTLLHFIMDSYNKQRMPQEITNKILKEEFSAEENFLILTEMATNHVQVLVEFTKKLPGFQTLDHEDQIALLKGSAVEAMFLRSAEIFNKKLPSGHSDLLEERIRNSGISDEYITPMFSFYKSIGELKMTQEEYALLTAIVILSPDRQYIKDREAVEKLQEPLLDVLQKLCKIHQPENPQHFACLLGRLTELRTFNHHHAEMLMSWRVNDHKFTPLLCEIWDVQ
Type: cell-based
Experimental: • 1. Cell culture: a, trypsinize dishes and seed cells are taken with appropriate density in 10 ml of complete […] at 37° C. b. Cells are incubated for 24 hours in 5% CO2 and humidified. • 2. Cell inoculation and transfection: FuGENE HD transfection reagent is used as a transfection reagent. • a. The transfection mixture is prepared according to the following procedure:
• b. The tube is tapped vigorously to mix the contents. The mixture is incubated at room temperature for 15 minutes. • c. Discs are trypsinized and cell density is determined. • d. The cytolymph is diluted to the desired volume at a density of 500,000 cells/ml (100 ul/well for 96-well plate). • e. The required volume of previously prepared transfection mixture is added to both cytolymph, and then 100 ul/well of cytolymph is dispensed onto the assay plate. • f. The assay plate is incubated under humidified conditions at 37° C., 5% CO2 for 24 hours. • 3. Compound preparation: • a. Compound stocks are prepared with a FXR working concentration of 10 mM and then diluted 3-fold in 100% DMSO. • b. 10 ul compound is added to 90 ul complete medium. • c. 5 ul compound solution is added to each well. • d. The plate is incubated at 37° C., 5% CO2 and humidified for 18 hours. • 4. Dual luciferase assay: the firefly and Renilla luciferase signals are analyzed by Dual Luciferase Reporter Assay System from Promega. Envision is used as a photometer. • 5. Result calculation: data values are normalized by dividing the firefly signal by the Renilla signal. “F/R” means “firefly/Renilla”. This normalization eliminates differences in different cell numbers and transfection efficiencies in each well. The % Activation value is calculated. The % Activation value is calculated by the following formula.
X is the “F/R” value for each concentration point. The minimum value is the average “F/R” value for the no compound control. The maximum value is the average “F/R” value of the reference compound control. • 6.

Row | EC50 | Compound
1 | 1.28 µM | O=C(O)c1cccc(C2CC(O)(c3cnc(OCc4c(-c5c(Cl)cccc5Cl)noc4C4CC4)cn3)C2)c1 (stereo not shown) [TM-01, 3-(3-(5-(5-cyclopropyl-3-(2,6-dichlorophenyl)isoxazole-4-ylmethoxy)-2-pyrazine)-1-hydroxycyclobutane) benzoic acid]
2 | 3.14 µM | O=C(O)c1cccc(N2CC(O)(c3cnc(OCc4c(-c5c(Cl)cccc5Cl)noc4C4CC4)cn3)C2)c1 [TM-02, 3-(3-(5-((5-cyclopropyl-3-(2,6-dichlorophenyl)isoxazol-4-yl)methoxy)pyrazine-2-yl)-3-hydroxyazetidin-1-yl) benzoic acid]
3 | 1.79 µM | CC(C)c1onc(-c2c(Cl)cccc2Cl)c1COc1cnc(C2(O)CC(c3cccc(C(=O)O)c3)C2)cn1 (stereo not shown) [TM-06, 3-(3-(5-(5-isopropyl-3-(2,6-dichlorophenyl)isoxazole-4-ylmethoxy)-2-pyrazine)-1-hydroxycyclobutane) benzoic acid]
4 | 0.26 µM | Cc1cc(C(=O)O)cc(C2CC(O)(c3cnc(OCc4c(-c5c(Cl)cccc5Cl)noc4C(C)C)cn3)C2)c1 (stereo not shown) [TM-09, 3-(3-(5-((3-(2,6-dichlorophenyl)-5-isopropylisoxazol-4-yl)methoxy)pyrazine-2-yl)-3-hydroxycyclobutyl)-5-methyl benzoic acid]
